Test results: patent US7875647B2, “Heteroaryl-pyrazole derivatives as cannabinoid CB1 receptor antagonists” (Green Cross Corporation, priority 2006, dated 2011)
pIC50: −log10 of the molar value.

Target: T1, Cannabinoid-1 receptor (CB1R) (Rattus norvegicus, UniProt P20272)
T1 construct: The tissue obtained from the brain of SD rats was homogenized; from tissue; host or cells: brain of SD rats (membrane pellet of the homogenate)
Assay: Cannabinoid-1 receptor (CB1R) binding affinity assay ([3H]CP-55940, rat CB-1 receptor binding protocol)
Settings: brain tissue of SD rats, [3H]CP-55940, 30° C. 60 min; read-out: IC50

T1 sequence (P20272 whole entry): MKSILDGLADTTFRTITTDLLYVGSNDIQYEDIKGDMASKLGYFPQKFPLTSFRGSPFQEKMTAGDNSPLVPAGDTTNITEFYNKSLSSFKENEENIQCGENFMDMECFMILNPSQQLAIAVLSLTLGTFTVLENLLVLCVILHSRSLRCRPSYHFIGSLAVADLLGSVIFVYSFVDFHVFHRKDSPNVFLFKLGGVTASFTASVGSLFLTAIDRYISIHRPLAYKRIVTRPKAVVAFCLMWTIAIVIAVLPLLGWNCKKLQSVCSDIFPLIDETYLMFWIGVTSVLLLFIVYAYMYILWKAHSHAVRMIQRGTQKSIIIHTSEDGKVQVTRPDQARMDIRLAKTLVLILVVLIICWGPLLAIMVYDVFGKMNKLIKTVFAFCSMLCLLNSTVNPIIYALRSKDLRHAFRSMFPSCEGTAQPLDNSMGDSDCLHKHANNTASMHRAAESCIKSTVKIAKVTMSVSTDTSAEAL

Structure (SMILES)	pIC50
Cc1c(-c2nnn(Cc3ccccc3)n2)nn(-c2ccc(Cl)cc2Cl)c1-c1ccc(Cl)cc1 [Example 582, 2-Benzyl-5-(5-(4-chlorophenyl)-1-(2,4-dichlorophenyl)-4-methyl-1H-pyrazol-3-yl)-2H-tetrazole]	6.98
Cc1c(-c2nnnn2Cc2ccccn2)nn(-c2ccc(Cl)cc2Cl)c1-c1ccc(Cl)cc1 [Example 583, 2-((5-(5-(4-Chlorophenyl)-1-(2,4-dichlorophenyl)-4-methyl-1H-pyrazol-3-yl)-1H-tetrazol-1-yl)methyl)pyridine]	6.98
Cc1c(-c2nnn(Cc3ccccn3)n2)nn(-c2ccc(Cl)cc2Cl)c1-c1ccc(Cl)cc1 [Example 584, 2-((5-(5-(4-Chlorophenyl)-1-(2,4-dichlorophenyl)-4-methyl-1H-pyrazol-3-yl)-2H-tetrazol-2-yl)methyl)pyridine]	7.03
Cc1c(-c2nnnn2Cc2cccnc2)nn(-c2ccc(Cl)cc2Cl)c1-c1ccc(Cl)cc1 [Example 585, 3-((5-(5-(4-Chlorophenyl)-1-(2,4-dichlorophenyl)-4-methyl-1H-pyrazol-3-yl)-1H-tetrazol-1-yl)methyl)pyridine]	6.99
Cc1c(-c2nnnn2Cc2ccncc2)nn(-c2ccc(Cl)cc2Cl)c1-c1ccc(Cl)cc1 [Example 587, 4-((5-(5-(4-Chlorophenyl)-1-(2,4-dichlorophenyl)-4-methyl-1H-pyrazol-3-yl)-1H-tetrazol-1-yl)methyl)pyridine]	7.05
Cc1c(-c2nnn(Cc3ccncc3)n2)nn(-c2ccc(Cl)cc2Cl)c1-c1ccc(Cl)cc1 [Example 588, 4-((5-(5-(4-Chlorophenyl)-1-(2,4-dichlorophenyl)-4-methyl-1H-pyrazol-3-yl)-2H-tetrazol-2-yl)methyl)pyridine]	6.87
Cc1c(-c2nnn(CC3CCCCC3)n2)nn(-c2ccc(Cl)cc2Cl)c1-c1ccc(Cl)cc1 [Example 590, 5-(5-(4-Chlorophenyl)-1-(2,4-dichlorophenyl)-4-methyl-1H-pyrazol-3-yl)-2-(cyclohexylmethyl)-2H-tetrazole]	7.07
Cc1c(-c2nnnn2CCc2ccccc2)nn(-c2ccc(Cl)cc2Cl)c1-c1ccc(Cl)cc1 [Example 591, 5-(5-(4-Chlorophenyl)-1-(2,4-dichlorophenyl)-4-methyl-1H-pyrazol-3-yl)-1-phenethyl-1H-tetrazole]	6.87
Cc1c(-c2nnnn2Cc2ccco2)nn(-c2ccc(Cl)cc2Cl)c1-c1ccc(Cl)cc1 [Example 593, 5-(5-(4-Chlorophenyl)-1-(2,4-dichlorophenyl)-4-methyl-1H-pyrazol-3-yl)-1-(furan-2-ylmethyl)-1H-tetrazole]	7.27
Cc1c(-c2nnn(Cc3ccco3)n2)nn(-c2ccc(Cl)cc2Cl)c1-c1ccc(Cl)cc1 [Example 594, 5-(5-(4-Chlorophenyl)-1-(2,4-dichlorophenyl)-4-methyl-1H-pyrazol-3-yl)-2-(furan-2-ylmethyl)-2H-tetrazole]	7.03
Cc1c(-c2nnn(Cc3ccsc3)n2)nn(-c2ccc(Cl)cc2Cl)c1-c1ccc(Cl)cc1 [Example 598, 5-(5-(4-Chlorophenyl)-1-(2,4-dichlorophenyl)-4-methyl-1H-pyrazol-3-yl)-2-(thiophen-3-ylmethyl)-2H-tetrazole]	7.11
Cc1c(-c2nnnn2C2CC2)nn(-c2ccc(Cl)cc2Cl)c1-c1ccc(Cl)cc1 [Example 599, 5-(5-(4-Chlorophenyl)-1-(2,4-dichlorophenyl)-4-methyl-1H-pyrazol-3-yl)-1-cyclopropyl-1H-tetrazole]	6.74
Cc1c(-c2nnnn2C2CCC2)nn(-c2ccc(Cl)cc2Cl)c1-c1ccc(Cl)cc1 [Example 600, 5-(5-(4-Chlorophenyl)-1-(2,4-dichlorophenyl)-4-methyl-1H-pyrazol-3-yl)-1-cyclobutyl-1H-tetrazole]	7.37
Cc1c(-c2nnnn2C23CC4CC(CC(C4)C2)C3)nn(-c2ccc(Cl)cc2Cl)c1-c1ccc(Cl)cc1 [Example 605, 1-Adamantyl-5-(5-(4-chlorophenyl)-1-(2,4-dichlorophenyl)-4-methyl-1H-pyrazol-3-yl)-1H-tetrazole]	6.89
Cc1c(-c2nnnn2C2CCCC2)nn(-c2ccc(Cl)cc2Cl)c1-c1ccc(Br)cc1 [Example 606, 5-(5-(4-bromophenyl)-1-(2,4-dichlorophenyl)-4-methyl-1H-pyrazol-3-yl)-1-cyclopentyl-1H-tetrazole]	7.94
Cc1c(-c2nnnn2C2CCCCCC2)nn(-c2ccc(Cl)cc2Cl)c1-c1ccc(Br)cc1 [Example 608, 5-(5-(4-bromophenyl)-1-(2,4-dichlorophenyl)-4-methyl-1H-pyrazol-3-yl)-1-cycloheptyl-1H-tetrazole]	7.78
Cc1c(-c2n[nH]c(C3CCCC3)n2)nn(-c2ccc(Cl)cc2Cl)c1-c1ccc(Cl)cc1 [Example 611, 3-(5-(4-Chlorophenyl)-1-(2,4-dichlorophenyl)-4-methyl-1H-pyrazol-3-yl)-5-cyclopentyl-1H-1,2,4-triazole]	6.16
Cc1c(-c2n[nH]c(C3CCCCC3)n2)nn(-c2ccc(Cl)cc2Cl)c1-c1ccc(Cl)cc1 [Example 612, 3-(5-(4-Chlorophenyl)-1-(2,4-dichlorophenyl)-4-methyl-1H-pyrazol-3-yl)-5-cyclohexyl-1H-1,2,4-triazole]	6.64
Cc1c(-c2n[nH]c(-c3cccs3)n2)nn(-c2ccc(Cl)cc2Cl)c1-c1ccc(Cl)cc1 [Example 614, 3-(5-(4-Chlorophenyl)-1-(2,4-dichlorophenyl)-4-methyl-1H-pyrazol-3-yl)-5-(thiophen-2-yl)-1H-1,2,4-triazole]	6.41
Cc1c(-c2n[nH]c(C(C)C)n2)nn(-c2ccc(Cl)cc2Cl)c1-c1ccc(Cl)cc1 [Example 618, 3-(5-(4-chlorophenyl)-1-(2,4-dichlorophenyl)-4-methyl-1H-pyrazol-3-yl)-5-isopropyl-1H-1,2,4-triazole]	6.85
Cc1c(-c2n[nH]c(CC3CC3)n2)nn(-c2ccc(Cl)cc2Cl)c1-c1ccc(Cl)cc1 [Example 620, 3-(5-(4-chlorophenyl)-1-(2,4-dichlorophenyl)-4-methyl-1H-pyrazol-3-yl)-5-(cyclopropylmethyl)-1H-1,2,4-triazole]	6.14

Second part, the compound after the results:

pIC50	Structure (SMILES)
7.12	Cc1c(-c2nnn(C3CCCCC3)n2)nn(-c2ccc(Cl)cc2Cl)c1-c1ccc(Cl)cc1 [Example 580, 5-(5-(4-Chlorophenyl)-1-(2,4-dichlorophenyl)-4-methyl-1H-pyrazol-3-yl)-2-cyclohexyl-2H-tetrazole]
7.00	Cc1c(-c2nnn(Cc3cccnc3)n2)nn(-c2ccc(Cl)cc2Cl)c1-c1ccc(Cl)cc1 [Example 586, 3-((5-(5-(4-Chlorophenyl)-1-(2,4-dichlorophenyl)-4-methyl-1H-pyrazol-3-yl)-2H-tetrazol-2-yl)methyl)pyridine]
6.91	Cc1c(-c2nnn(CCc3ccccc3)n2)nn(-c2ccc(Cl)cc2Cl)c1-c1ccc(Cl)cc1 [Example 592, 5-(5-(4-Chlorophenyl)-1-(2,4-dichlorophenyl)-4-methyl-1H-pyrazol-3-yl)-2-phenethyl-2H-tetrazole]
6.98	Cc1c(-c2nnnn2Cc2ccoc2)nn(-c2ccc(Cl)cc2Cl)c1-c1ccc(Cl)cc1 [Example 595, 5-(5-(4-Chlorophenyl)-1-(2,4-dichlorophenyl)-4-methyl-1H-pyrazol-3-yl)-1-(furan-3-ylmethyl)-1H-tetrazole]
6.71	Cc1c(-c2nnn(Cc3ccoc3)n2)nn(-c2ccc(Cl)cc2Cl)c1-c1ccc(Cl)cc1 [Example 596, 5-(5-(4-Chlorophenyl)-1-(2,4-dichlorophenyl)-4-methyl-1H-pyrazol-3-yl)-2-(furan-3-ylmethyl)-2H-tetrazole]
7.40	Cc1c(-c2nnnn2Cc2ccsc2)nn(-c2ccc(Cl)cc2Cl)c1-c1ccc(Cl)cc1 [Example 597, 5-(5-(4-Chlorophenyl)-1-(2,4-dichlorophenyl)-4-methyl-1H-pyrazol-3-yl)-1-(thiophen-3-ylmethyl)-1H-tetrazole]
7.30	CCCCCCn1nnnc1-c1nn(-c2ccc(Cl)cc2Cl)c(-c2ccc(Cl)cc2)c1C [Example 603, 5-(5-(4-Chlorophenyl)-1-(2,4-dichlorophenyl)-4-methyl-1H-pyrazol-3-yl)-1-hexyl-1H-tetrazole]
7.85	CCc1c(-c2nnnn2C2CCCC2)nn(-c2ccc(Cl)cc2Cl)c1-c1ccc(Br)cc1 [Example 609, 5-(5-(4-bromophenyl)-1-(2,4-dichlorophenyl)-4-ethyl-1H-pyrazol-3-yl)-1-cyclopentyl-1H-tetrazole]
7.65	CCc1c(-c2nnnn2C2CCCC2)nn(-c2ccc(Cl)cc2Cl)c1-c1ccc(Cl)cc1 [Example 610, 5-(5-(4-chlorophenyl)-1-(2,4-dichlorophenyl)-4-ethyl-1H-pyrazol-3-yl)-1-cyclopentyl-1H-tetrazole]
6.32	Cc1c(-c2n[nH]c(-c3ccccc3)n2)nn(-c2ccc(Cl)cc2Cl)c1-c1ccc(Cl)cc1 [Example 613, 3-(5-(4-Chlorophenyl)-1-(2,4-dichlorophenyl)-4-methyl-1H-pyrazol-3-yl)-5-phenyl-1H-1,2,4-triazole]
6.20	Cc1c(-c2n[nH]c(C3CCCCCC3)n2)nn(-c2ccc(Cl)cc2Cl)c1-c1ccc(Cl)cc1 [Example 615, 3-(5-(4-chlorophenyl)-1-(2,4-dichlorophenyl)-4-methyl-1H-pyrazol-3-yl)-5-cycloheptyl-1H-1,2,4-triazole]
6.27	Cc1c(-c2n[nH]c(-c3ccco3)n2)nn(-c2ccc(Cl)cc2Cl)c1-c1ccc(Cl)cc1 [Example 616, 3-(5-(4-chlorophenyl)-1-(2,4-dichlorophenyl)-4-methyl-1H-pyrazol-3-yl)-5-(furan-2-yl)-1H-1,2,4-triazole]
6.28	CCCc1nc(-c2nn(-c3ccc(Cl)cc3Cl)c(-c3ccc(Cl)cc3)c2C)n[nH]1 [Example 617, 3-(5-(4-chlorophenyl)-1-(2,4-dichlorophenyl)-4-methyl-1H-pyrazol-3-yl)-5-propyl-1H-1,2,4-triazole]
6.89	Cc1c(-c2n[nH]c(C3CC3)n2)nn(-c2ccc(Cl)cc2Cl)c1-c1ccc(Cl)cc1 [Example 619, 3-(5-(4-chlorophenyl)-1-(2,4-dichlorophenyl)-4-methyl-1H-pyrazol-3-yl)-5-cyclopropyl-1H-1,2,4-triazole]
